ChEMBL document CHEMBL3885881, “DrugMatrix”

Species on record: Rattus norvegicus
Assay: DrugMatrix - Regimen: Daily Repeat
Assay type: toxicity, organism-based, Sprague-Dawley
Set-up: regimen Daily Repeat, gender Male, age 6-8 weeks
Settings: in vivo, po, route oral GAVAGE, […]; for ABSOLUTE BASOPHIL / ABSOLUTE EOSINOPHIL / ABSOLUTE LYMPHOCYTE / ABSOLUTE MONOCYTE / ABSOLUTE SEGMENTED NEUTROPHIL / BASOPHIL / EOSINOPHIL / ERYTHROCYTE COUNT / HEMATOCRIT / HEMOGLOBIN / LEUKOCYTE COUNT / LYMPHOCYTE / MEAN CORPUSCULAR HEMOGLOBIN / MEAN CORPUSCULAR HEMOGLOBIN CONCENTRATION / MEAN CORPUSCULAR VOLUME / MONOCYTE / NEUTROPHIL / NUCLEATED RED BLOOD CELLS / PLATELET COUNT: tissue Blood; for ALANINE AMINOTRANSFERASE / ALBUMIN / ALKALINE PHOSPHATASE / ASPARTATE AMINOTRANSFERASE / BLOOD UREA NITROGEN / CARBON DIOXIDE / CHLORIDE / CHOLESTEROL / CREATINE PHOSPHOKINASE / CREATININE / GLUCOSE / LACTATE DEHYDROGENASE / LIPASE / PHOSPHORUS / POTASSIUM / SODIUM / TOTAL BILIRUBIN / TOTAL PROTEIN / URIC ACID: tissue Plasma
[1] = 250 mg/kg, 72 h, dose level Low, time 3 day
[2] = 250 mg/kg, 120 h, dose level Low, time 5 day
[3] = 930 mg/kg, 72 h, dose level High, time 3 day
[4] = 930 mg/kg, 120 h, dose level High, time 5 day

CC12CCC(CC1)C(C)(C)O2 [EUCALYPTOL]
ABSOLUTE BASOPHIL [1]: 0 CELLS/uL
ABSOLUTE EOSINOPHIL [1]: 0 CELLS/uL
ABSOLUTE LYMPHOCYTE [1]: 12865.33 CELLS/uL
ABSOLUTE MONOCYTE [1]: 104 CELLS/uL
ABSOLUTE SEGMENTED NEUTROPHIL [1]: 1797.33 CELLS/uL
BASOPHIL [1]: 0%
EOSINOPHIL [1]: 0%
ERYTHROCYTE COUNT [1]: 5.22 x10E6/uL
HEMATOCRIT [1]: 32.73%
HEMOGLOBIN [1]: 12.97 G/DL
LEUKOCYTE COUNT [1]: 14.77 x10E3/uL
LYMPHOCYTE [1]: 87.33%
MEAN CORPUSCULAR HEMOGLOBIN [1]: 24.83 pg
MEAN CORPUSCULAR HEMOGLOBIN CONCENTRATION [1]: 39.63 G/DL
MEAN CORPUSCULAR VOLUME [1]: 62.77 fL
MONOCYTE [1]: 0.67%
NEUTROPHIL [1]: 12%
NUCLEATED RED BLOOD CELLS [1]: 0 /100WBC
PLATELET COUNT [1]: 1143.67 x10E3/uL
ALANINE AMINOTRANSFERASE [1]: 68.67 u/L
ALBUMIN [1]: 4.03 G/DL
ALKALINE PHOSPHATASE [1]: 413.33 u/L
ASPARTATE AMINOTRANSFERASE [1]: 95.33 u/L
BLOOD UREA NITROGEN [1]: 12.33 mg/dL
CARBON DIOXIDE [1]: 24 mmol/L
CHLORIDE [1]: 103.67 MEQ/L
CHOLESTEROL [1]: 84.67 mg/dL
CREATINE PHOSPHOKINASE [1]: 439.67 u/L
CREATININE [1]: 0.17 mg/dL
GLUCOSE [1]: 160.33 mg/dL
LACTATE DEHYDROGENASE [1]: 154.67 u/L
LIPASE [1]: 10.33 u/L
PHOSPHORUS [1]: 12.5 mg/dL
POTASSIUM [1]: 6.64 MEQ/L
SODIUM [1]: 145.33 MEQ/L
TOTAL BILIRUBIN [1]: 0.2 mg/dL
TOTAL PROTEIN [1]: 5.53 G/DL
URIC ACID [1]: 1.43 mg/dL
ABSOLUTE BASOPHIL [2]: 0 CELLS/uL
ABSOLUTE EOSINOPHIL [2]: 0 CELLS/uL
ABSOLUTE LYMPHOCYTE [2]: 15020.67 CELLS/uL
ABSOLUTE MONOCYTE [2]: 301.67 CELLS/uL
ABSOLUTE SEGMENTED NEUTROPHIL [2]: 1277.67 CELLS/uL
BASOPHIL [2]: 0%
EOSINOPHIL [2]: 0%
ERYTHROCYTE COUNT [2]: 5.46 x10E6/uL
HEMATOCRIT [2]: 34.57%
HEMOGLOBIN [2]: 14.17 G/DL
LEUKOCYTE COUNT [2]: 16.6 x10E3/uL
LYMPHOCYTE [2]: 90.33%
MEAN CORPUSCULAR HEMOGLOBIN [2]: 25.97 pg
MEAN CORPUSCULAR HEMOGLOBIN CONCENTRATION [2]: 40.97 G/DL
MEAN CORPUSCULAR VOLUME [2]: 63.33 fL
MONOCYTE [2]: 1.67%
NEUTROPHIL [2]: 8%
NUCLEATED RED BLOOD CELLS [2]: 0.67 /100WBC
PLATELET COUNT [2]: 1304.67 x10E3/uL
ALANINE AMINOTRANSFERASE [2]: 61 u/L
ALBUMIN [2]: 4.2 G/DL
ALKALINE PHOSPHATASE [2]: 377.33 u/L
ASPARTATE AMINOTRANSFERASE [2]: 78.33 u/L
BLOOD UREA NITROGEN [2]: 16 mg/dL
CARBON DIOXIDE [2]: 24.33 mmol/L
CHLORIDE [2]: 103 MEQ/L
CHOLESTEROL [2]: 71 mg/dL
CREATINE PHOSPHOKINASE [2]: 231.33 u/L
CREATININE [2]: 0.17 mg/dL
GLUCOSE [2]: 153.67 mg/dL
LACTATE DEHYDROGENASE [2]: 170.67 u/L
LIPASE [2]: 10 u/L
PHOSPHORUS [2]: 12.6 mg/dL
POTASSIUM [2]: 6.77 MEQ/L
SODIUM [2]: 146.3 MEQ/L
TOTAL BILIRUBIN [2]: 0.13 mg/dL
TOTAL PROTEIN [2]: 5.97 G/DL
URIC ACID [2]: 1.53 mg/dL
ABSOLUTE BASOPHIL [3]: 0 CELLS/uL
ABSOLUTE EOSINOPHIL [3]: 0 CELLS/uL
ABSOLUTE LYMPHOCYTE [3]: 15782.67 CELLS/uL
ABSOLUTE MONOCYTE [3]: 121.67 CELLS/uL
ABSOLUTE SEGMENTED NEUTROPHIL [3]: 2129 CELLS/uL
BASOPHIL [3]: 0%
EOSINOPHIL [3]: 0%
ERYTHROCYTE COUNT [3]: 5.63 x10E6/uL
HEMATOCRIT [3]: 35.83%
HEMOGLOBIN [3]: 14.2 G/DL
LEUKOCYTE COUNT [3]: 18.03 x10E3/uL
LYMPHOCYTE [3]: 87.67%
MEAN CORPUSCULAR HEMOGLOBIN [3]: 25.3 pg
MEAN CORPUSCULAR HEMOGLOBIN CONCENTRATION [3]: 39.67 G/DL
MEAN CORPUSCULAR VOLUME [3]: 63.73 fL
MONOCYTE [3]: 0.67%
NEUTROPHIL [3]: 11.67%
NUCLEATED RED BLOOD CELLS [3]: 0 /100WBC
PLATELET COUNT [3]: 1268 x10E3/uL
ALANINE AMINOTRANSFERASE [3]: 85.33 u/L
ALBUMIN [3]: 4.33 G/DL
ALKALINE PHOSPHATASE [3]: 424.33 u/L
ASPARTATE AMINOTRANSFERASE [3]: 90.67 u/L
BLOOD UREA NITROGEN [3]: 16.67 mg/dL
CARBON DIOXIDE [3]: 23.33 mmol/L
CHLORIDE [3]: 103 MEQ/L
CHOLESTEROL [3]: 84.33 mg/dL
CREATINE PHOSPHOKINASE [3]: 211.67 u/L
CREATININE [3]: 0.24 mg/dL
GLUCOSE [3]: 153.67 mg/dL
LACTATE DEHYDROGENASE [3]: 86.67 u/L
LIPASE [3]: 11.67 u/L
PHOSPHORUS [3]: 12.2 mg/dL
POTASSIUM [3]: 6.76 MEQ/L
SODIUM [3]: 146.43 MEQ/L
TOTAL BILIRUBIN [3]: 0.13 mg/dL
TOTAL PROTEIN [3]: 6.03 G/DL
URIC ACID [3]: 1.67 mg/dL
ABSOLUTE BASOPHIL [4]: 0 CELLS/uL
ABSOLUTE EOSINOPHIL [4]: 0 CELLS/uL
ABSOLUTE LYMPHOCYTE [4]: 18083.67 CELLS/uL
ABSOLUTE MONOCYTE [4]: 256.67 CELLS/uL
ABSOLUTE SEGMENTED NEUTROPHIL [4]: 1226.33 CELLS/uL
BASOPHIL [4]: 0%
EOSINOPHIL [4]: 0%
ERYTHROCYTE COUNT [4]: 5.66 x10E6/uL
HEMATOCRIT [4]: 35.63%
HEMOGLOBIN [4]: 14.2 G/DL
LEUKOCYTE COUNT [4]: 19.57 x10E3/uL
LYMPHOCYTE [4]: 92.33%
MEAN CORPUSCULAR HEMOGLOBIN [4]: 25.1 pg
MEAN CORPUSCULAR HEMOGLOBIN CONCENTRATION [4]: 39.87 G/DL
MEAN CORPUSCULAR VOLUME [4]: 62.97 fL
MONOCYTE [4]: 1.33%
NEUTROPHIL [4]: 6.33%
NUCLEATED RED BLOOD CELLS [4]: 0 /100WBC
PLATELET COUNT [4]: 1326.67 x10E3/uL
ALANINE AMINOTRANSFERASE [4]: 58 u/L
ALBUMIN [4]: 4.17 G/DL
ALKALINE PHOSPHATASE [4]: 302.33 u/L
ASPARTATE AMINOTRANSFERASE [4]: 76.33 u/L
BLOOD UREA NITROGEN [4]: 14 mg/dL
CARBON DIOXIDE [4]: 26.33 mmol/L
CHLORIDE [4]: 101.67 MEQ/L
CHOLESTEROL [4]: 73 mg/dL
CREATINE PHOSPHOKINASE [4]: 275 u/L
CREATININE [4]: 0.22 mg/dL
GLUCOSE [4]: 158 mg/dL
LACTATE DEHYDROGENASE [4]: 114.33 u/L
LIPASE [4]: 11 u/L
PHOSPHORUS [4]: 11.8 mg/dL
POTASSIUM [4]: 6.84 MEQ/L
SODIUM [4]: 145.5 MEQ/L
TOTAL BILIRUBIN [4]: 0.23 mg/dL
TOTAL PROTEIN [4]: 5.97 G/DL
URIC ACID [4]: 1.8 mg/dL
